In ChEMBL document CHEMBL1135227, “Substituted 2-(R)-methyl piperazines as muscarinic M(2) selective ligands” (Bioorg Med Chem Lett, 2002):
pKi: −log10 of the molar value.

Legend:
[1] = molecular target: T1, Muscarinic acetylcholine receptor M1 (Homo sapiens) (UniProt P11229); test: Ratio of binding affinities at human cloned Muscarinic acetylcholine receptor M1 and human cloned Muscarinic acetylcholine receptor M2.
T1 sequence (whole entry): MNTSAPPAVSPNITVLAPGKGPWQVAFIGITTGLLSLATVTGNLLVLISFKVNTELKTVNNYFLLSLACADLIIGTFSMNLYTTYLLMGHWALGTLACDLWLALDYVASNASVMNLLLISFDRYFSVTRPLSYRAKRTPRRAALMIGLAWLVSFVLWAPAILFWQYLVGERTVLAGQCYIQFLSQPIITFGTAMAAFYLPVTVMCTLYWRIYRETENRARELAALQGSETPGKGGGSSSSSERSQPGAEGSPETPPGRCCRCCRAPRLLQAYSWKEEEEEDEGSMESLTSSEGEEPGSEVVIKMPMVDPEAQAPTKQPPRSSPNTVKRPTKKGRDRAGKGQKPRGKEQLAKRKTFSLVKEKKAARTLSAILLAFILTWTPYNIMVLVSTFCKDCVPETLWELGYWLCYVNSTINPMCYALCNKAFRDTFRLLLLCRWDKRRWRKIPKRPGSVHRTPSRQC

[2] = molecular target: T2, Muscarinic acetylcholine receptor M2 (Homo sapiens, UniProt P08172); test: Binding affinity against human cloned Muscarinic acetylcholine receptor M2.
T2 sequence (P08172 whole entry): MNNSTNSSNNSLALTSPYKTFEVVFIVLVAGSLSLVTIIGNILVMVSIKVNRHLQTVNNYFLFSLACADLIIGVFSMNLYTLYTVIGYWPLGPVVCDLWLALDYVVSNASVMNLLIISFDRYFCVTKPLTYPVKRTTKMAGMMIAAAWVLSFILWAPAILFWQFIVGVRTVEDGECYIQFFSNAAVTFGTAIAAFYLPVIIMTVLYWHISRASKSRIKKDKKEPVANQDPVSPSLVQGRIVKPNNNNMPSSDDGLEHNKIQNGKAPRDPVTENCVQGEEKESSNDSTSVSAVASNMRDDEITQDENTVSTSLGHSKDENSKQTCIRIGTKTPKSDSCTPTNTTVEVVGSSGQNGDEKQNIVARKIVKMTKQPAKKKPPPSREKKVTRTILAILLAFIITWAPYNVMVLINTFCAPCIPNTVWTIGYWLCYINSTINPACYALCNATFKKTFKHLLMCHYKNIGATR

[3] = molecular target: T2, Muscarinic acetylcholine receptor M2; test: Compound was tested for its binding affinity against cloned human Muscarinic acetylcholine receptor M2

Compound | Ratio [1] | pKi [2] | pKi [3]
COc1ccc(S(=O)(=O)c2ccc([C@@H](C)N3CCN(C4CCCCC4)[C@H](C)C3)cc2)cc1 | 10 | 9.85 | –
C[C@@H]1CN(C2CCNCC2)CCN1[C@@H](C)c1ccc(S(=O)(=O)c2ccc3c(c2)OCO3)cc1 | 4 | 8.05 | –
CCCCC(=O)N1CCC(N2CCN([C@@H](C)c3ccc(S(=O)(=O)c4ccc5c(c4)OCO5)cc3)[C@H](C)C2)CC1 | 15 | 8.89 | –
COc1ccc(S(=O)(=O)c2ccc([C@@H](C)N3CCN(C4CCCCC4)C[C@H]3C)cc2)cc1 | 30 | 9.82 | –
CCNC(=O)N1CCC(N2CCN([C@@H](C)c3ccc(S(=O)(=O)c4ccc5c(c4)OCO5)cc3)[C@H](C)C2)CC1 | 10 | 8.60 | –
COc1ccc(S(=O)(=O)c2ccc([C@H](C)N3CCN(C4CCCCC4)C[C@H]3C)cc2)cc1 | 44 | 9.52 | –
C[C@@H]1CN(C2CCCCC2)CCN1[C@@H](C)c1ccc(S(=O)(=O)c2ccc3c(c2)OCO3)cc1 | 61 | 10.52 | –
CCCCS(=O)(=O)N1CCC(N2CCN([C@@H](C)c3ccc(S(=O)(=O)c4ccc5c(c4)OCO5)cc3)[C@H](C)C2)CC1 | 198 | 9.70 | –
COc1ccc(S(=O)(=O)c2ccc([C@@H](C)N3CCN(C4CCCCC4)[C@@H](C)C3)cc2)cc1 | 10 | 10.40 | –
COc1ccc(S(=O)(=O)c2ccc(CN3CCN(C4CCCCC4)C[C@H]3C)cc2)cc1 | 23 | 9.52 | –
C[C@@H]1CN(C2CCN(C(=O)c3ccccc3)CC2)CCN1[C@@H](C)c1ccc(S(=O)(=O)c2ccc3c(c2)OCO3)cc1 | 32 | 9.05 | –
C[C@@H]1CN(C2CCCCC2)CCN1[C@H](C)c1ccc(S(=O)(=O)c2ccc3c(c2)OCO3)cc1 | 30 | 10.52 | –
COc1ccc(S(=O)(=O)c2ccc(C(C#N)N3CCN(C4CCCCC4)C[C@@H]3C)cc2)cc1 (stereo not given in full) | 5 | 7.80 | –
COc1ccc(S(=O)(=O)c2ccc(C(C#N)N3CCN(C4CCCCC4)C[C@H]3C)cc2)cc1 (stereo not given in full) | 36 | – | 9.80
C[C@@H]1CN(C2CCN(S(=O)(=O)c3ccccc3)CC2)CCN1[C@@H](C)c1ccc(S(=O)(=O)c2ccc3c(c2)OCO3)cc1 | 40 | 9.10 | –
COc1ccc(S(=O)(=O)c2ccc(C(C)N3CCN(C4CCCCC4)CC3)cc2)cc1 (stereo not given) | 10 | – | –
CCCS(=O)(=O)N1CCC(N2CCN([C@@H](C)c3ccc(S(=O)(=O)c4ccc5c(c4)OCO5)cc3)[C@H](C)C2)CC1 | 281 | 9.70 | –
CCS(=O)(=O)N1CCC(N2CCN([C@@H](C)c3ccc(S(=O)(=O)c4ccc5c(c4)OCO5)cc3)[C@H](C)C2)CC1 | 109 | 9.15 | –
